The text below walks through data of patent US10517926B2, “Oligopeptide having proinflammatory cytokine secretion-inhibiting activity” (Osaka University, priority 2015, dated 2019).

One assay has as its system MG6 cells. The assay can be described thus: Proinflammatory cytokine secretion inhibition, LPS-stimulated microglial cells (ELISA). The assay is classed as cell-based, mouse. The settings on record: for proinflammatory cytokine secretion-inhibiting activity on the MG6 cells: same test as Example 2. The protocol: MG6 cells (mouse-derived microglial cell line) were cultured in a DMEM medium (+4% FBS) containing MHP1 or MHP2 (final concentration: 50 or 100 μg/ml), and LPS (final concentration: 2 ng/ml) for 24 hours by a standard method. After culture, the concentrations of IL-6 and TNFα in the medium were measured by the ELISA method. In the Examples of the present application, the ELISA method was performed using a kit (Quantikine ELISA Mouse TNF-α or Quantikine ELISA Mouse IL-6, produced by R&D Systems). The results are shown in FIG. 1 (IL-6) and FIG. 2 (TNFα).
The proinflammatory cytokine secretion-inhibiting effect was examined in the same as in Example 2, except that the final concentration of MHP1 was set to 100 μg/ml, and that RANKL full-length protein was used at a final concentration of 10 ng/ml or 100 ng/ml as the comparison target.
For orientation: In an ELISA, binding on a coated surface is turned into a signal by an enzyme label.

In assay [1] the test system is LPS-administered mice (Balb/c). The assay can be described thus: Septicemia model, LPS intraperitoneal, survival. The assay is classed as in vivo, mouse. The note with it: LPS 10 mg/kg + MHP2 5 mg/kg or 10 mg/kg i.p.; LPS only: 2 of 3 died; FIG. 17. As for the experimental part: To wild-type mice (Balb/c, 5-week-old female mice), LPS (10 mg/kg) was intraperitoneally administered, or LPS (10 mg/kg) and MHP-2 (5 mg/kg or 10 mg/kg) were intraperitoneally administered. After administration, the survival rate of the mice was measured.

Assay [2] concerns osteoclast precursor cells. The assay can be described thus: Osteoclast differentiation, Osteoclast Culture Kit (TRAP and nuclear staining). It is filed as cell-based. The settings on record: with M-CSF 50 ng/ml; MHP1 30, 50 or 100 μg/ml or RANKL protein 50 ng/ml; FIG. 13. The protocol: Osteoclast Culture Kit V-2 (OSC33, produced by Cosmo Bio Co., Ltd.) was used. According to the manual of the kit, culture of osteoclast precursor cells was started in the presence of M-CSF (final concentration: 50 ng/ml) in the A and B groups, and in the presence of M-CSF (final concentration: 50 ng/ml) and MHP1 (final concentration: 30, 50, or 100 μg/ml) in the C and D groups. Thereafter, 24 hours to 7 days after the start of culture, the A group was cultured in the presence of M-CSF (final concentration: 50 ng/ml), the B group was cultured in the presence of M-CSF (final concentration: 50 ng/ml) and RANKL protein (final concentration: 50 ng/ml), the C group was cultured in the presence of M-CSF (final concentration: 50 ng/ml) and MHP1 (final concentration: 30, 50, or 100 μg/ml), and the D group was cultured in the presence of M-CSF (final concentration: 50 ng/ml), RANKL protein (final concentration: 50 ng/ml), and MHP1 (final concentration: 30, 50, or 100 μg/ml). After culture, the cells were subjected to TRAP staining and nuclear staining according to a standard method.

A further assay has as its system THP1 cells. The assay can be described thus: Proinflammatory cytokine secretion inhibition, human macrophage cells. The assay is classed as cell-based. The note with it: MHP6 10-100 μg/ml or MHP1 100 μg/ml, LPS 2 ng/ml, 24 hours, FIG. 14. The protocol:
THP1 cells (human-derived macrophage cell line) were cultured in a DMEM medium (+4% FBS) containing MHP6 (human-derived; final concentration: 10, 30, 50, or 100 μg/ml) or MHP1 (mouse-derived; final concentration: 100 μg/ml), and LPS (final concentration: 2 ng/ml) for 24 hours by a standard method. After culture, the concentration of IL-6 in the medium was measured by the ELISA method.

In the case of “LMVYVVKTSIK (listed as Mus musculus) [MHP17]”, the “proinflammatory cytokine secretion-inhibiting activity on the MG6 cells” value with MG6 cells is “showed proinflammatory cytokine secretion-inhibiting activity”. Take “DYLQLMVYVVKTSIKIPSSHNLMKGGSTKN (listed as Mus musculus) [MHP2]”: the mice that died result in assay [1] is recorded as “no mouse”. Further, the “increase in the amount of IL-6 secretion by LPS” value in the assay with MG6 cells (MG6 cells, peptide 50 or 100 μg/ml, LPS 2 ng/ml, 24 hours, FIG. 1) is reported as “suppressed”. The “increase in the amount of TNFα secretion by LPS” value with MG6 cells (MG6 cells, peptide 50 or 100 μg/ml, LPS 2 ng/ml, 24 hours, FIG. 2) is reported as “suppressed”. Regarding “LMVYVVKTSIKIPSSHNLMKGG (listed as Mus musculus) [MHP5]”, the “proinflammatory cytokine secretion-inhibiting activity on the MG6 cells” value in the assay on MG6 cells is recorded as “showed proinflammatory cytokine secretion-inhibiting activity”.

“HETSGSVPADYLQLMVYVVKTSIKIPSS (listed as Mus musculus) [MHP3]”: the “proinflammatory cytokine secretion-inhibiting activity on the MG6 cells” value with MG6 cells is listed as “did not show proinflammatory cytokine secretion-inhibiting activity”. Take “RANKL: RANKL protein (Recombinant Murin sRANKL Ligand (Cat No. 315-11): produced by Peprotech) (LMVYVVKTSIKIPSSHNLMKGGSTKNWSGN) [reference compound]”: the “differentiation of osteoclasts by the substance itself” value in assay [2] is given as “promoted”.

Turning to “LMVYVVKTSIKIPSSHNLMKGGSTKN (listed as Mus musculus) [MHP13]”, in the assay on MG6 cells, the “proinflammatory cytokine secretion-inhibiting activity on the MG6 cells” value was “showed proinflammatory cytokine secretion-inhibiting activity”. Turning to “LMVYVTKTSIKIPSSHTLMKGGSTKYWSGN (listed as Homo sapiens) [MHP6]”, the “proinflammatory cytokine (IL-6) secretion-inhibiting activity on human-derived macrophage cells” value in the assay on THP1 cells was “exhibited proinflammatory cytokine secretion-inhibiting activity”. Regarding “LMVYVVKTSIKIPSS (listed as Mus musculus) [MHP4]”, the “proinflammatory cytokine secretion-inhibiting activity on the MG6 cells” value with MG6 cells is listed as “showed proinflammatory cytokine secretion-inhibiting activity”. On the same count and under the same terms, to “LMVYVVKTSIKIPSSHNLMKGGS (listed as Mus musculus) [MHP12]” belongs “showed proinflammatory cytokine secretion-inhibiting activity”.
